Results as given in the NIST ThermoML archive (doi:10.1007/s10765-019-2537-x).
“And” between values parts separate entries of the source, which are not always exact repeats. Equal values may be shown once.

Conditions: Liquid, transient hot wire

CCCCCCCCCCCCCCC [pentadecane]
Conditions | thermal conductivity
318.28 K, 1420 kPa | 0.1369 W/m/K
318.31 K, 1420 kPa | 0.138 W/m/K
318.36 K, 15320 kPa | 0.1419 W/m/K
318.4 K, 1420 kPa | 0.1376 W/m/K
318.4 K, 21080 kPa | 0.1429 W/m/K
318.42 K, 21080 kPa | 0.1432 W/m/K
318.44 K, 15320 kPa | 0.1408 W/m/K and 0.1415 W/m/K
318.45 K, 21080 kPa | 0.1432 W/m/K
318.49 K, 5220 kPa | 0.1386 W/m/K
318.5 K, 10340 kPa | 0.1403 W/m/K
318.52 K, 5220 kPa | 0.1382 W/m/K
318.54 K, 10340 kPa | 0.139 W/m/K
318.56 K, 10340 kPa | 0.1394 W/m/K
318.59 K, 5220 kPa | 0.1377 W/m/K
336.96 K, 20240 kPa | 0.1393 W/m/K
337.02 K, 15360 kPa | 0.1403 W/m/K
337.04 K, 5660 kPa | 0.1338 W/m/K
337.09 K, 5660 kPa | 0.1353 W/m/K
337.1 K, 20240 kPa | 0.1399 W/m/K
337.13 K, 20240 kPa | 0.1401 W/m/K
337.14 K, 5660 kPa | 0.1361 W/m/K
337.14 K, 15360 kPa | 0.1368 W/m/K
337.18 K, 1270 kPa | 0.1332 W/m/K
337.2 K, 15360 kPa | 0.1372 W/m/K
337.22 K, 1270 kPa | 0.132 W/m/K
337.24 K, 1270 kPa | 0.1338 W/m/K
337.25 K, 10510 kPa | 0.1368 W/m/K
337.28 K, 10510 kPa | 0.1356 W/m/K
356.45 K, 5190 kPa | 0.1334 W/m/K
356.57 K, 5190 kPa | 0.1301 W/m/K
356.61 K, 5190 kPa | 0.131 W/m/K
356.68 K, 10160 kPa | 0.1329 W/m/K
356.7 K, 1040 kPa | 0.1284 W/m/K
356.71 K, 10160 kPa | 0.1307 W/m/K
356.72 K, 10160 kPa | 0.1314 W/m/K
356.74 K, 15190 kPa | 0.1321 W/m/K
356.75 K, 1040 kPa | 0.13 W/m/K
356.75 K, 20580 kPa | 0.1355 W/m/K
356.79 K, 20580 kPa | 0.1377 W/m/K
356.8 K, 15190 kPa | 0.132 W/m/K
356.83 K, 15190 kPa | 0.1341 W/m/K
356.9 K, 20580 kPa | 0.1346 W/m/K
377.3 K, 5560 kPa | 0.1275 W/m/K
377.31 K, 5560 kPa | 0.1262 W/m/K
377.33 K, 10240 kPa | 0.1296 W/m/K
377.39 K, 5560 kPa | 0.1272 W/m/K
377.4 K, 10240 kPa | 0.1302 W/m/K
377.44 K, 1420 kPa | 0.1248 W/m/K
377.46 K, 10240 kPa | 0.1284 W/m/K
377.52 K, 20480 kPa | 0.131 W/m/K
377.53 K, 1420 kPa | 0.1234 W/m/K
377.6 K, 1420 kPa | 0.1238 W/m/K
377.6 K, 20480 kPa | 0.1304 W/m/K
377.61 K, 20480 kPa | 0.1326 W/m/K
377.62 K, 15010 kPa | 0.1288 W/m/K
377.7 K, 15010 kPa | 0.1284 W/m/K
377.73 K, 15010 kPa | 0.1274 W/m/K
396.74 K, 20460 kPa | 0.1297 W/m/K
396.83 K, 20460 kPa | 0.1291 W/m/K
397.07 K, 20460 kPa | 0.1276 W/m/K
397.22 K, 10360 kPa | 0.1224 W/m/K
397.22 K, 15080 kPa | 0.1248 W/m/K
397.24 K, 10360 kPa | 0.1252 W/m/K
397.31 K, 15080 kPa | 0.1229 W/m/K
397.32 K, 15100 kPa | 0.1242 W/m/K
397.38 K, 10410 kPa | 0.1225 W/m/K
397.42 K, 1330 kPa | 0.1182 W/m/K
397.44 K, 5360 kPa | 0.1209 W/m/K
397.47 K, 1330 kPa | 0.1188 W/m/K
397.49 K, 1330 kPa | 0.1165 W/m/K
397.52 K, 5360 kPa | 0.1202 W/m/K
397.57 K, 5360 kPa | 0.1176 W/m/K
417.11 K, 5290 kPa | 0.121 W/m/K
417.13 K, 20250 kPa | 0.1228 W/m/K
417.16 K, 15230 kPa | 0.1204 W/m/K
417.19 K, 15230 kPa | 0.1227 W/m/K
417.26 K, 15230 kPa | 0.1223 W/m/K
417.27 K, 10550 kPa | 0.1227 W/m/K
417.3 K, 20250 kPa | 0.1195 W/m/K
417.36 K, 1130 kPa | 0.1134 W/m/K
417.37 K, 1130 kPa | 0.115 W/m/K
417.47 K, 10430 kPa | 0.1185 W/m/K
417.48 K, 1130 kPa | 0.1123 W/m/K
417.5 K, 10430 kPa | 0.1178 W/m/K
436.73 K, 20320 kPa | 0.1172 W/m/K
436.78 K, 20320 kPa | 0.1187 W/m/K
436.9 K, 10760 kPa | 0.1134 W/m/K
